Assay results: patent US5387709A, “Substituted sulfonamides, process of preparation and medicines containing same” (Lipha Lyonnaise Industrielle Pharmaceutique, priority 1990, dated 1995)
Read-outs that look alike come from different tables or passages of the source.

Columns and labels:
[1] = test system: platelets of guinea-pig; assay: Inhibition of the platelet aggregation induced by U46619 (BORN test), guinea-pig platelets; assay type: cell-based; conditions: read-out: PLATELET AGGREGATION GUINEA-PIG IC 50
Source text: (A) Inhibition of the platelet aggregation induced by U46619, a stable analogue of TXA2 (9,11-dideoxy-11α,9α-epoxymethanoprostaglandine F2 α):
The tests determine a concentration of compound which inhibits at 50% (CI50) a liminar aggregation induced by U46619. The activities of the compounds of the present invention are given in example 108.
(§1) The products of examples 1 to 107 have been tested for platelet aggregation on guinea-pig and on the contraction of the aorta in rat as described previously.

[2] = test system: rat aorta; assay: Inhibition of the U46619 induced rat aorta vasoconstriction; assay type: cell-based; conditions: Rattus norvegicus, contraction by U46619 (142 nM), rat thoracic aorta, 37° C.; read-out: VASOCONSTRICTION RAT AORTA IC 50
Protocol: (B) Inhibition of the U46619 induced rat aorta vasoconstriction:
male rats weighing about 300 g are put to death by euthanasia; the thoracic aorta is rapidly taken out. A sample of about 1 cm is cut into a spiral, and placed in a vat containing 20 ml of nutrient medium (Krebs-Henseleit) kept a 37° C. and oxygenated (O2 95%, CO2 5%). The contractions are recorded with an isotonic strain gauge. After a rest of 45 mn, supramaximum contractions are provoked by the addition of an analogue of TXA2 (U46619: 142 nM) to the survival medium. A plateau is generally reached after 10 mn of contact, the latter not exceeding 25 mn. A rest of 30 mn and a plurality of rinses take place after each contraction. The products are added 10 mn after U46619 and allowed to rest 15 mn, after which delay the inhibition is measured. The inhibitory concentration 50 (IC) is determined for each compound studied and on a minimum of 3 aortas. The activities of the compounds of the present invention are described in example 108.
as §1

IC50 ([1]; Cavia porcellus, Platelet)	IC50 [2]	IC50 [1]	SMILES
690 nM	–	–	O=C(O)Cc1ccc(C[C@@H]2CCC[C@H]2NS(=O)(=O)c2ccc(Cl)cc2)cc1 (relative stereo) [Example 1, Trans-4-[[2-[[(4-chlorophenyl)sulfonyl]amino]cyclopentyl]methyl]-benzeneacetic acid]
–	70 nM	720 nM	O=C(O)Cc1ccc(C[C@@H]2CCC[C@H]2NS(=O)(=O)c2ccc(Cl)cc2)cc1 (relative stereo) [Example 2, Sodium trans-4-[[2-[[(4-chlorophenyl)sulfonyl]amino]-cyclopentyl]methyl]benzene-acetate]
600 nM	60 nM	–	O=C(O)Cc1ccc(C[C@@H]2CCC[C@@H]2NS(=O)(=O)c2ccc(Cl)cc2)cc1 (relative stereo) [Example 3, Cis-4-[[2-[[(4-chlorophenyl)sulfonyl]amino]cyclopentyl]methyl]benzeneaceticacid]
23000 nM	200 nM	–	O=C(O)Cc1ccc(C[C@@H]2CCC[C@H]2NS(=O)(=O)c2ccc(F)cc2)cc1 (relative stereo) [Example 4, Trans-4-[[2-[[(4-fluorophenyl)sulfonyl]amino]cyclopentyl]methyl]benzeneacetic acid]
6300 nM	560 nM	–	O=C(O)Cc1ccc(C[C@@H]2CCC[C@H]2NS(=O)(=O)c2ccccc2)cc1 (relative stereo) [Example 6, Trans-4-[[2-[[(phenyl)sulfonyl]amino]cyclopentyl]methyl]benzeneacetic acid]
3300 nM	300 nM	–	Cc1ccc(S(=O)(=O)N[C@@H]2CCC[C@H]2Cc2ccc(CC(=O)O)cc2)cc1 (relative stereo) [Example 7, Trans-4-[[2-[[(4-methylphenyl)sulfonyl]amino]cyclopentyl]methyl]-benzeneacetic acid]
1300 nM	5000 nM	–	O=C(O)Cc1ccc([C@@H]2CCCC[C@H]2NS(=O)(=O)c2ccc(Cl)cc2)cc1 (relative stereo) [Example 10, Trans-4-[2-[[(4-chlorophenyl)sulfonyl]amino]cyclohexyl]benzeneacetic acid]
390 nM	50 nM	–	O=C(O)Cc1ccc(C[C@@H]2CCCC[C@H]2NS(=O)(=O)c2ccc(Cl)cc2)cc1 (relative stereo) [Example 11, Trans-4-[[2-[[(4-chlorophenyl)sulfonyl]amino]cyclohexyl]methyl]benzeneacetic acid]
> 20000 nM	1000 nM	–	O=C(O)Cc1ccc(OC2CCCC2NS(=O)(=O)c2ccc(Cl)cc2)cc1 (centres unmarked) [Example 9, 4-[2-[[(4-chlorophenyl)sulfonyl]amino]cyclopentyloxy]benzeneacetic acid]
1800 nM	70 nM	–	O=C(O)Cc1ccc(C2(CNS(=O)(=O)c3ccc(Cl)cc3)CC2)cc1 [Example 12, 4-[1-[[[(4-Chlorophenyl)sulfonyl]amino]methyl]cyclopropyl]benzeneacetic acid]
680 nM	60 nM	–	O=C(O)Cc1ccc(C2(CNS(=O)(=O)c3ccc(Cl)cc3)CCC2)cc1 [Example 13, 4-[1[[[(4-Chlorophenyl)sulfonyl]amino]methyl]cyclobutyl]benzeneacetic acid]
5500 nM	70 nM	–	O=C(O)Cc1ccc(C2(CNS(=O)(=O)c3ccc(Cl)cc3)CCCC2)cc1 [Example 14, 4-[1-[[[(4-Chlorophenyl)sulfonyl]amino]methyl]cyclopentyl]benzeneacetic acid]
1100 nM	300 nM	–	O=C(O)Cc1ccc(CC2(CNS(=O)(=O)c3ccccc3)CCCC2)cc1 [Example 15, 4-[[1-[[[(Phenyl)sulfonyl]amino]methyl]cyclopentyl]methyl]benzeneacetic acid]
2400 nM	200 nM	–	O=C(O)Cc1ccc(CC2(CNS(=O)(=O)c3ccc(F)cc3)CCCC2)cc1 [Example 16, 4-[[1-[[[(4-Fluorophenyl)sulfonyl]amino]methyl]cyclopentyl]methyl]benzeneacetic acid]
> 20000 nM	> 1000 nM	–	CC(=O)c1ccc(CC2(CNS(=O)(=O)c3ccc(Cl)cc3)CCCC2)cc1 [Example 17, N-[[1-[(4-Acetylphenyl)methyl]cyclopentyl]methyl]-4-chlorobenzenesulfonamide]
660 nM	> 1000 nM	–	COC(=O)Cc1ccc(CC2(CNS(=O)(=O)c3ccc(Cl)cc3)CCCC2)cc1 [Example 18, Methyl 4-[[1-[[[(4-chlorophenyl)sulfonyl]amino]methyl]cyclopentyl]methyl]benzeneacetate]

IC50 ([1]; Cavia porcellus, Platelet)	IC50 [2]	IC50 [1]	SMILES
570 nM	300 nM	–	Cc1ccc(S(=O)(=O)NCC2(Cc3ccc(CC(=O)O)cc3)CCCC2)cc1 [Example 24, 4-[[1-[[[(4-methylphenyl)sulfonyl]amino]methyl]cyclopentyl]methyl]benzeneacetic acid]
1500 nM	60 nM	–	O=C(O)c1ccc(CC2(CNS(=O)(=O)c3ccc(Cl)cc3)CCCC2)cc1 [Example 25, 4-[[1-[[[(4-Chlorophenyl)sulfonyl]amino]methyl]cyclopentyl]methyl]benzoic acid]
3100 nM	460 nM	–	O=C(O)Cc1ccc(CC2(CNS(=O)(=O)c3ccc(Cl)c(Cl)c3)CCCC2)cc1 [Example 26, 4-[[1-[[[(3,4-Dichlorophenyl)sulfonyl]amino]methyl]cyclopentyl]methyl]benzeneacetic acid]
290 nM	20 nM	–	O=C(O)Cc1ccc(CC2(CNS(=O)(=O)c3ccc(Cl)cc3)CCC2)cc1 [Example 27, 4-[[1-[[[(4-chlorophenyl)sulfonyl]amino]methyl]cyclobutyl]methyl]benzeneacetic acid]
2600 nM	> 1000 nM	–	O=S(=O)(NCC1(Cc2ccc(CCO)cc2)CCCC1)c1ccc(Cl)cc1 [Example 28, 4-Chloro-N-[[1-[[4-(2-hydroxyethyl)phenyl]methyl]cyclopentyl]methyl]benzenesulfonamide]
5300 nM	1000 nM	–	O=C(O)Cc1ccc(C2(CNS(=O)(=O)c3ccc(Cl)cc3)CCCCC2)cc1 [Example 29, 4-[1-[[[(4-Chlorophenyl)sulfonyl]amino]methyl]cyclohexyl]benzeneacetic acid]
920 nM	1000 nM	–	O=C(O)CCC(=O)c1ccc(CC2(CNS(=O)(=O)c3ccc(Cl)cc3)CCCC2)cc1 [Example 30, 4-[4-[[1-[[[(4-Chlorophenyl)sulfonyl]amino]methyl]cyclopentyl]methyl]phenyl]-4-oxobutanoic acid]
2500 nM	≥ 1000 nM	–	O=C1CCC(c2ccc(CC3(CNS(=O)(=O)c4ccc(Cl)cc4)CCCC3)cc2)=NN1 [Example 31, 4-Chloro-N-[[1-[[4-(4,5-dihydro-3-oxo-2H-pyridazin-6-yl)phenyl]methyl]cyclopentyl]methyl]-benzenesulfonamide]
1800 nM	400 nM	–	O=C(O)Cc1ccc(CC2(CNS(=O)(=O)c3ccccc3Cl)CCCC2)cc1 [Example 32, 4-[[1-[[[(2-Chlorophenyl)sulfonyl]amino]methyl]cyclopentyl]methyl]benzeneacetic acid]
> 5000 nM	> 1000 nM	–	O=S(=O)(NCC1(Cc2ccc(CCO)cc2)CCCC1)c1cccc(Cl)c1 [Example 33, 3-Chloro-N-[[1-[[4-(2-hydroxyethyl)phenyl]methyl]cyclopentyl]methyl]benzenesulfonamide]
> 5000 nM	> 1000 nM	–	CC(=O)c1ccc(S(=O)(=O)NCC2(Cc3ccc(CCO)cc3)CCCC2)cc1 [Example 43, 4-Acetyl-N-[[1-[[4-(2-hydroxyethyl)phenyl]methyl]cyclopentyl]methyl]-benzenesulfonamide]
> 5000 nM	–	–	CS(=O)(=O)c1ccc(S(=O)(=O)NCC2(Cc3ccc(CCO)cc3)CCCC2)cc1 [Example 44, N-[[1-[[4-(2-Hydroxyethyl)phenyl]methyl]cyclopentyl]methyl]-4-methylsulfonylbenzenesulfonamide]
> 5000 nM	–	–	O=S(=O)(NCC1(Cc2ccc(CCO)cc2)CCCC1)c1ccc(OC(F)(F)F)cc1 [Example 45, N-[[1-[[4-(2-Hydroxyethyl)phenyl]methyl]cyclopentyl]methyl]-4-trifluoromethoxybenzenesulfonamide]
1000 nM	–	–	O=C(O)Cc1ccc(CC2(CNS(=O)(=O)c3ccc4ccccc4c3)CCCC2)cc1 [Example 102, 4-[[1-[[[(Naphthalen-2-yl)sulfonyl]amino]methyl]cyclopentyl]methyl]benzeneacetic acid]
> 5000 nM	–	–	O=C(O)Cc1ccc(CC2(CNS(=O)(=O)c3cccc4cccnc34)CCCC2)cc1 [Example 106, 4-[[1-[[[(Quinol-8-yl)sulfonyl]amino]methyl]cyclopentyl]methyl]benzeneacetic acid]

SMILES	IC50 ([1]; Cavia porcellus, Platelet)	IC50 [2]	IC50 [1]
O=C(O)Cc1ccc(CC2(CNS(=O)(=O)c3ccc(Cl)cc3)CCCC2)cc1 [Example 19, 4-[[1-[[[(4-Chlorophenyl)sulfonyl]amino]methyl]cyclopentyl]methyl]benzeneacetic acid]	260 nM	100 nM	–
